Results on 17 molecules are retold here after PubChem BioAssay (NCI).

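In this assay, cells in 96-well plates receive the compound at five concentrations for 48 hours. Endpoints are linearly interpolated between the surrounding concentrations. At the TGI there is no net growth.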

Test systems include A498 renal; SNB-75 CNS; T-47D breast; LOX IMVI melanoma; A549 NSCLC; COLO 205 colon; UACC-62 melanoma; SF-295 CNS; NCI-H23 lung; MDA-MB-435.
Holding throughout (assay): DTP human tumour cell line panel, 48 h

The TGI is the concentration giving total growth inhibition. Take `Cc1cn(CC2=NCC(C)(C)N2)c(=O)[nH]c1=O`: the TGI in the assay with A498 renal, in the assay on SNB-75 CNS, with T-47D breast, with LOX IMVI melanoma, with A549 NSCLC and with COLO 205 colon was over 100 µM each time. Further, the TGI in the assay with UACC-62 melanoma, in the assay on SF-295 CNS and in the assay on NCI-H23 lung was over 100 µM throughout.
For `c1ccc2c(c1)CCc1cc3cc4c(nc3nc1-2)-c1ccccc1CC4`, the TGI in the assay on SNB-75 CNS, in the assay with LOX IMVI melanoma, in the assay with A549 NSCLC, in the assay on COLO 205 colon, in the assay with UACC-62 melanoma and with SF-295 CNS was over 100 µM in each case. The TGI with NCI-H23 lung is over 100 µM.
In the case of `CCSC1=C(C)N(C=NC(C)(C)C)CC1`, the concentration for total growth inhibition (TGI) with A498 renal, in the assay on SNB-75 CNS, with LOX IMVI melanoma, in the assay on A549 NSCLC, in the assay on COLO 205 colon and with UACC-62 melanoma was over 100 µM each time. Moreover, the TGI with SF-295 CNS and in the assay on NCI-H23 lung was over 100 µM each time.
As to `O=C1NC2(CCCCC2)C2CCCCCC12` (stereo not given), the TGI in the assay on A498 renal, with SNB-75 CNS, in the assay with LOX IMVI melanoma, in the assay on A549 NSCLC, with UACC-62 melanoma and in the assay with SF-295 CNS was over 100 µM each time. In addition, in the assay on NCI-H23 lung, the total growth inhibition concentration (TGI) is over 100 µM.
For `CC(C)c1ccc(/C=C2\CSCC3=C2NC(=S)NC3c2ccc(C(C)C)cc2)cc1` (stereo not given), the TGI with T-47D breast, with LOX IMVI melanoma, in the assay on A549 NSCLC, in the assay on COLO 205 colon, in the assay with UACC-62 melanoma and with SF-295 CNS was over 100 µM each time. Moreover, in the assay on NCI-H23 lung, the TGI was over 100 µM.
Take `O=c1[nH]c(=O)n(Cc2ccccc2CO)cc1Sc1ccccc1`: the total growth inhibition concentration (TGI) in the assay on SNB-75 CNS is over 100 µM; in the assay with T-47D breast, over 100 µM; in the assay on MDA-MB-435, 45.2 µM; with A549 NSCLC, 43.2 µM; in the assay on COLO 205 colon, over 100 µM; with UACC-62 melanoma, over 100 µM. Also, the TGI was over 100 µM with SF-295 CNS and 39.9 µM in the assay with NCI-H23 lung.
`Oc1[nH]c2ccccc2c1N=Nc1nc(-c2ccc(Cl)c(Cl)c2)cs1`: the concentration for total growth inhibition (TGI) in the assay on SNB-75 CNS, in the assay on T-47D breast, with MDA-MB-435, with LOX IMVI melanoma, in the assay on A549 NSCLC and in the assay on COLO 205 colon was over 100 µM throughout. The TGI in the assay on SF-295 CNS and in the assay on NCI-H23 lung was over 100 µM throughout.
Consider `CCOc1nc(-c2ccccc2)cc(-c2ccc(N3CCOCC3)cc2)c1C#N`, for which the TGI in the assay with A498 renal, with SNB-75 CNS, in the assay on MDA-MB-435, in the assay on LOX IMVI melanoma, in the assay with A549 NSCLC and with COLO 205 colon was over 100 µM in each case. Besides, the TGI with SF-295 CNS and in the assay with NCI-H23 lung was over 100 µM throughout.
Consider `COc1cccc(/C=N/[N-]C(N)=O)c1[O-].[Ni+2].[OH3+].c1cnc2c(c1)ccc1cccnc12`, for which the TGI in the assay with A498 renal, in the assay with SNB-75 CNS, in the assay on LOX IMVI melanoma, with A549 NSCLC, in the assay on COLO 205 colon and in the assay on UACC-62 melanoma was over 100 µM throughout. Moreover, the total growth inhibition concentration (TGI) in the assay on SF-295 CNS and with NCI-H23 lung was over 100 µM each time.
Take `OC1(c2cc3ccccc3s2)CCCCC1`: the total growth inhibition concentration (TGI) with A498 renal is over 100 µM; in the assay on SNB-75 CNS, over 100 µM; in the assay on MDA-MB-435, over 100 µM; in the assay on LOX IMVI melanoma, over 100 µM; in the assay on A549 NSCLC it was over 100 µM; in the assay with COLO 205 colon it was 41.8 µM. The TGI in the assay with UACC-62 melanoma, with SF-295 CNS and in the assay on NCI-H23 lung was over 100 µM throughout.
As to `CCCCOP1(=O)C=C(C)C(=C(Cl)Cl)C(C)=C1` (stereo not given), the TGI in the assay on SNB-75 CNS is over 94.4 µM; in the assay with LOX IMVI melanoma it was 33.1 µM; with A549 NSCLC, over 41.5 µM; with COLO 205 colon it was 8.97 µM; in the assay with UACC-62 melanoma, 21.8 µM; in the assay with SF-295 CNS it was 25.9 µM. Further, the TGI in the assay on NCI-H23 lung was 34.7 µM.
Take `C=C1C(=O)OCC2C(C(=O)O)=CC3C(C)C(C)=CC123` (stereo not given): the TGI was 18.2 µM in the assay with A498 renal; 44.1 µM in the assay with SNB-75 CNS; 27.9 µM in the assay with LOX IMVI melanoma; 77.1 µM in the assay with A549 NSCLC; 32.9 µM in the assay on COLO 205 colon; 11.8 µM in the assay with UACC-62 melanoma. In addition, the figures for the TGI in the assay with SF-295 CNS and in the assay on NCI-H23 lung were 49.1 µM and 25.7 µM, respectively.
Take `NC(N)=NNC(=O)CCCCCCCC(=O)NN=C(N)N`: the TGI in the assay on A498 renal is over 100 µM; in the assay with LOX IMVI melanoma, over 100 µM; with A549 NSCLC, over 100 µM; in the assay with COLO 205 colon, 35.4 µM; in the assay on UACC-62 melanoma it was over 100 µM; in the assay with SF-295 CNS, over 100 µM. In addition, the concentration for total growth inhibition (TGI) in the assay on NCI-H23 lung was over 100 µM.
With `NCCNc1cccc2ccccc12`, the TGI with A498 renal, with LOX IMVI melanoma, in the assay with A549 NSCLC, in the assay with COLO 205 colon, in the assay on UACC-62 melanoma and in the assay on SF-295 CNS was over 100 µM throughout. For the same molecule, the TGI in the assay on NCI-H23 lung is over 100 µM.
In the case of `CCN(c1ccc(Br)cc1)c1c(Br)c(=O)nc2ccccn12`, the TGI in the assay with A498 renal, in the assay with SNB-75 CNS, with A549 NSCLC, with COLO 205 colon, with UACC-62 melanoma and with NCI-H23 lung was over 100 µM each time.
With `Cc1cccc(NC(=O)C(=O)C(C(=O)c2ccccc2F)C2OC(=O)c3ccccc32)c1Cl` (stereo not given), the total growth inhibition concentration (TGI) is over 100 µM with A498 renal; 64.2 µM in the assay with SNB-75 CNS; 43.3 µM in the assay with LOX IMVI melanoma; over 100 µM with A549 NSCLC; 38.1 µM in the assay with COLO 205 colon; 85.4 µM in the assay on UACC-62 melanoma. Also, the TGI in the assay with SF-295 CNS is over 100 µM; with NCI-H23 lung it was 81.8 µM.
On to `CC(C)(C)C(=O)ON1N=NC2C3CC(OCc4ccccc4)(OCc4ccccc4)C(O3)C21` (stereo not given), for which the TGI is over 100 µM in the assay with A498 renal; 69.5 µM with SNB-75 CNS; 32.8 µM in the assay with LOX IMVI melanoma; over 100 µM in the assay on A549 NSCLC; 38.4 µM with COLO 205 colon; 44.9 µM in the assay on UACC-62 melanoma. The TGI with SF-295 CNS is 52.9 µM; with NCI-H23 lung, 43.4 µM.
